Several values for one entry are separate records, joined by “and”; a condition that tells them apart may be missing. Equal entries are not always repeated. Inconclusive results and toxic doses are left out.

Drawing on PubChem BioAssay AID330 (DTP/NCI, 2004), this text covers T/C for 23 compounds.

For this test, the system named is P388 leukemia ip, CD2F1 mice, survival T/C. The experiment in a line: NCI In Vivo Anticancer Drug Screen. Data for tumor model P388 Leukemia (intraperitoneal) in CD2F1 (CDF1) mice. The conditions noted are these: endpoint: median survival time, higher = longer survival. The method in brief:
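Mice carrying the transplanted tumor received test compound or vehicle. Survival was recorded in each group, and the value is the treated-group measurement divided by that of the vehicle-treated control group.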

[1] abbreviates: dose: 200.0 mg/kg/injection, schedule: Q01DX005 (ip), vehicle: saline with Tween-80.
The mark [2] stands for this setting: dose: 25.0 mg/kg/injection, schedule: Q04DX002 (ip), vehicle: saline with Tween-80.
The mark [3] stands for this setting: dose: 50.0 mg/kg/injection, schedule: Q04DX002 (ip), vehicle: saline with Tween-80.
[4] abbreviates: dose: 100.0 mg/kg/injection, schedule: Q04DX002 (ip), vehicle: saline with Tween-80.
Setting [5] is: dose: 100.0 mg/kg/injection, schedule: Q01DX009 (ip), vehicle: saline with Tween-80.
The mark [6] stands for this setting: dose: 200.0 mg/kg/injection, schedule: Q01DX009 (ip), vehicle: saline with Tween-80.
[7] abbreviates: dose: 200.0 mg/kg/injection, schedule: Q04DX002 (ip), vehicle: saline with Tween-80.
The mark [8] stands for this setting: dose: 60.0 mg/kg/injection, schedule: Q01DX005 (ip), vehicle: saline with Tween-80.
[9] abbreviates: dose: 120.0 mg/kg/injection, schedule: Q01DX005 (ip), vehicle: saline with Tween-80.
[10] abbreviates: dose: 240.0 mg/kg/injection, schedule: Q01DX005 (ip), vehicle: saline with Tween-80.
The mark [11] stands for this setting: dose: 50.0 mg/kg/injection, schedule: Q01DX005 (ip), vehicle: Klucel (hydroxypropylcellulose) (HPC).
[12] abbreviates: dose: 100.0 mg/kg/injection, schedule: Q01DX005 (ip), vehicle: Klucel (hydroxypropylcellulose) (HPC).
[13] abbreviates: dose: 50.0 mg/kg/injection, schedule: Q01DX009 (ip), vehicle: saline with Tween-80.
The mark [14] stands for this setting: dose: 25.0 mg/kg/injection, schedule: Q04DX003 (ip), vehicle: Klucel (hydroxypropylcellulose) (HPC).
Setting [15] is: dose: 100.0 mg/kg/injection, schedule: Q04DX003 (ip), vehicle: Klucel (hydroxypropylcellulose) (HPC).

On to `CCN(CC)CCN=c1nc(/C=C\C=C\NN(C)C(=S)SC)c(C)nn1C`, for which the T/C is, setting by setting: (dose: 6.25 mg/kg/injection, schedule: Q01DX005 (ip), vehicle: saline with Tween-80) 103 % of control; (dose: 12.5 mg/kg/injection, schedule: Q01DX005 (ip), vehicle: saline with Tween-80) 87 % of control; (dose: 25.0 mg/kg/injection, schedule: Q01DX005 (ip), vehicle: saline with Tween-80) 89 % of control; under setting [1], 90 % of control.

For `O=C(NC(=S)c1ccccc1)Nc1ccc(Cl)c(Cl)c1`, the T/C was 100 % of control (dose: 8.0 mg/kg/injection, schedule: Q01DX009 (ip), vehicle: saline with Tween-80); 99 % of control (dose: 16.0 mg/kg/injection, schedule: Q01DX009 (ip), vehicle: saline with Tween-80); 87 % of control (dose: 32.0 mg/kg/injection, schedule: Q01DX009 (ip), vehicle: saline with Tween-80).

For the compound `CSc1snc2c1c(=O)n(C)c(=O)n2C`, the T/C by setting is: under setting [2], 98 % of control; under setting [3], 101 % of control; under setting [4], 99 % of control.

Turning to `COc1ccc(Cl)cc1C(c1cc(Cl)ccc1OC)C(Cl)(Cl)Cl`, the T/C runs as follows: under setting [5], 100 % of control; under setting [6], 100 % of control; (dose: 400.0 mg/kg/injection, schedule: Q01DX009 (ip), vehicle: saline with Tween-80) 90 % of control.

Consider `FC(F)(F)COP1OCCS1` (configuration not stated), for which the T/C is 99 % of control (dose: 12.5 mg/kg/injection, schedule: Q04DX002 (ip), vehicle: saline with Tween-80); 99 % of control under setting [2]; 98 % of control under setting [3]; 100 % of control under setting [4]; 104 % of control under setting [7].

Consider `Cc1ccoc1`, for which the T/C by setting is: (dose: 7.5 mg/kg/injection, schedule: Q01DX005 (ip), vehicle: saline with Tween-80) 105 % of control; (dose: 15.0 mg/kg/injection, schedule: Q01DX005 (ip), vehicle: saline with Tween-80) 100 % of control; (dose: 30.0 mg/kg/injection, schedule: Q01DX005 (ip), vehicle: saline with Tween-80) 97 % of control; under setting [8], 98 % of control; under setting [9], 101 % of control; under setting [10], 106 % of control.

Take `CN(C)CCOc1cnc2ccc(Cl)cc2n1`: the T/C is 88 % of control under setting [11] and 88 % of control under setting [12].

As for `C=C1CCC2C1C1C(C(C)C)CCC21C` (configuration not stated), the T/C is 92 % of control (dose: 12.5 mg/kg/injection, schedule: Q01DX009 (ip), vehicle: saline with Tween-80); 96 % of control (dose: 25.0 mg/kg/injection, schedule: Q01DX009 (ip), vehicle: saline with Tween-80); 93 % of control under setting [13].

Turning to `CC1(C)COC(=O)/C1=C1\SC(=S)NC1=O`, the T/C is, setting by setting: (dose: 100.0 mg/kg/injection, schedule: Q04DX003 (ip), vehicle: saline) 103 % of control; (dose: 200.0 mg/kg/injection, schedule: Q04DX003 (ip), vehicle: saline) 92 % of control.

On to `Cc1ccccc1N1C(=O)CC2(CCCC2)C1=O`, for which the T/C under setting [13] was 97 % of control, the T/C under setting [5] was 113 % of control and the T/C under setting [6] is 94 % of control.

Turning to `CO/N=C/c1ccccc1C(=O)O`, the T/C was 100 % of control under setting [11]; 95 % of control under setting [12]; 99 % of control (dose: 200.0 mg/kg/injection, schedule: Q01DX005 (ip), vehicle: Klucel (hydroxypropylcellulose) (HPC)).

For the compound `CCOC(=O)c1cc(=O)oc(=O)[nH]1`, the T/C (dose: 6.25 mg/kg/injection, schedule: Q04DX003 (ip), vehicle: Klucel (hydroxypropylcellulose) (HPC)) was 105 % of control; the T/C (dose: 12.5 mg/kg/injection, schedule: Q04DX003 (ip), vehicle: Klucel (hydroxypropylcellulose) (HPC)) was 112 % of control; the T/C under setting [14] was 114 % of control; the T/C under setting [15] was 89 % of control; the T/C (dose: 200.0 mg/kg/injection, schedule: Q04DX003 (ip), vehicle: Klucel (hydroxypropylcellulose) (HPC)) was 87 % of control.

Consider `O=C1Nc2ccccc2SC1c1ccccc1Cl` (configuration not stated), for which the T/C (dose: 6.25 mg/kg/injection, schedule: Q01DX009 (ip), vehicle: saline) is 96 % of control; the T/C (dose: 12.5 mg/kg/injection, schedule: Q01DX009 (ip), vehicle: saline) was 99 % of control; the T/C (dose: 25.0 mg/kg/injection, schedule: Q01DX009 (ip), vehicle: saline) is 105 % of control; the T/C (dose: 50.0 mg/kg/injection, schedule: Q01DX009 (ip), vehicle: saline) was 106 % of control and 93 % of control; the T/C (dose: 100.0 mg/kg/injection, schedule: Q01DX009 (ip), vehicle: saline) was 102 % of control; the T/C (dose: 200.0 mg/kg/injection, schedule: Q01DX009 (ip), vehicle: saline) was 105 % of control. The T/C (dose: 400.0 mg/kg/injection, schedule: Q01DX009 (ip), vehicle: saline) is 113 % of control.

With `CC(=O)NS(=O)(=O)c1ccc(N=Cc2c3ccccc3nc3cc(Cl)ccc23)cc1`, the T/C reads like this: under setting [4], 101 % of control; under setting [7], 93 % of control; (dose: 400.0 mg/kg/injection, schedule: Q04DX002 (ip), vehicle: saline with Tween-80) 101 % of control.

With `COc1ccc2c(N=[N+]=[N-])ccnc2c1`, the T/C runs as follows: under setting [8], 89 % of control; under setting [9], 89 % of control.

Take `CCCCCCSc1nc2ccc(N=Cc3ccccc3O)cc2s1`: the T/C is 94 % of control (dose: 50.0 mg/kg/injection, schedule: Q01DX009 (ip), vehicle: Klucel (hydroxypropylcellulose) (HPC)); 87 % of control (dose: 100.0 mg/kg/injection, schedule: Q01DX009 (ip), vehicle: Klucel (hydroxypropylcellulose) (HPC)); 90 % of control (dose: 200.0 mg/kg/injection, schedule: Q01DX009 (ip), vehicle: Klucel (hydroxypropylcellulose) (HPC)).

Turning to `Clc1nnc(-c2ccccc2)s1`, the T/C under setting [14] is 100 % of control; the T/C (dose: 50.0 mg/kg/injection, schedule: Q04DX003 (ip), vehicle: Klucel (hydroxypropylcellulose) (HPC)) is 102 % of control; the T/C under setting [15] is 100 % of control.

Take `CC1=C(Cl)C(=O)c2c(O)cccc2C1=O`: the T/C is 91 % of control (dose: 1.0 mg/kg/injection, schedule: Q01DX005 (ip), vehicle: Klucel + Tween-80); 94 % of control (dose: 2.0 mg/kg/injection, schedule: Q01DX005 (ip), vehicle: Klucel + Tween-80); 97 % of control (dose: 4.0 mg/kg/injection, schedule: Q01DX005 (ip), vehicle: Klucel + Tween-80).

In the case of `CN1CCN(c2ccccc2N)CC1`, the T/C (dose: 5.0 mg/kg/injection, schedule: Q01DX009 (ip), vehicle: saline with Tween-80) was 104 % of control; the T/C (dose: 10.0 mg/kg/injection, schedule: Q01DX009 (ip), vehicle: saline with Tween-80) is 100 % of control; the T/C (dose: 20.0 mg/kg/injection, schedule: Q01DX009 (ip), vehicle: saline with Tween-80) is 95 % of control.

`CCCCCC/C(CC(SCC)c1ccccc1Cl)=N\NC(N)=O` (configuration not stated): the T/C (dose: 60.0 mg/kg/injection, schedule: Q01DX005 (ip), vehicle: saline + Tween-80 + alcohol) is 105 % of control; the T/C (dose: 120.0 mg/kg/injection, schedule: Q01DX005 (ip), vehicle: saline + Tween-80 + alcohol) is 97 % of control; the T/C (dose: 240.0 mg/kg/injection, schedule: Q01DX005 (ip), vehicle: saline + Tween-80 + alcohol) is 100 % of control.

On to `CS(=O)CC(C)(O)C1OC(=O)C=C2C3(C)CC4OC4C4(C)C(=O)OC(C34)C3OC231` (configuration not stated), for which the T/C (dose: 2.5 mg/kg/injection, schedule: Q01DX009 (ip), vehicle: DMSO) is 108 % of control and the T/C (dose: 20.0 mg/kg/injection, schedule: Q01DX009 (ip), vehicle: DMSO) was 151 % of control.

As for `CCN(CC)C(=O)c1c(OC)cc(C)cc1C(O)c1cc(OC)cc(OC)c1` (configuration not stated), the T/C is 99 % of control (dose: 50.0 mg/kg/injection, schedule: Q01DX005 (ip), vehicle: saline with Tween-80); 99 % of control (dose: 100.0 mg/kg/injection, schedule: Q01DX005 (ip), vehicle: saline with Tween-80); 96 % of control under setting [1].

Turning to `CN=C([O-])c1c(=O)o[nH][n+]1-c1ccccc1`, the T/C under setting [8] is 95 % of control, the T/C under setting [9] is 98 % of control and the T/C under setting [10] was 94 % of control.
